In patent US11458138B2 (Novartis AG, priority 2017, dated 2022):
“Also recorded” adds a separate entry of the source.

What was measured:
[1] = test system: Phospho-YAP (SER127) in liver tissue; experiment: In vivo treatment of mice: Phospho-YAP (pYAP) HTRF in liver tissue; details: mouse liver, single oral dose 10 mg/kg
Procedure: (§1) All animal studies were carried out in accordance with federal, state, local and institutional guidelines governing the use of laboratory animals in research. Male C57BL/6J mice (age 8-10 weeks) were purchased from Jackson Labs (Bar Harbor, Me.). Example 46 was formulated for oral dosing at 3 mg/ml, and Example 261 at 1 mg/ml, in a suspension of methylcellulose:Tween80:Water (0.5:0.5:99). Single oral dose of either compound was at 10 mL/kg body weight. Blood and liver tissue were collected under deep anesthesia (isoflurane) at either 2 h post-dose (for mRNA analysis) or 24 h post-dose (for immunohistochemistry).
Frozen liver tissue was transferred into a Lysing Matrix tube (MP, cat #6913-500) with a 1:50 solution of Protease inhibitor (Sigma-Aldrich, cat #P8340) in Phosphosafe extraction buffer (Novagen, cat #71296-3) and homogenized using the FastPrep-24 (MP biomedicals). […] The protein concentration was measured using the BCA Protein Assay Kit (Pierce cat. 23227) following the manufacturer's protocol. […] The same input quantity was used for each sample, based on total protein content (30-60 ug per sample per well). […] Plates were read on an EnVision (PerkinElmer) with emission wavelengths of 665 nm & 620 nm. The HTRF signal ratio was calculated as Signal(665 nm)/Signal(620 nm))×10000 as specified in the manufacturer's protocol. […]

[2] = test system: Cyr61 mRNA in liver; experiment: In vivo treatment of mice: quantitative RT-PCR, Cyr61; details: mouse liver, single oral dose 10 mg/kg, 2 h post-dose, relative to vehicle, mean+/-SEM
Procedure: as §1
Total liver RNA was isolated from tissue after storage in RNAlater reagent (Qiagen), using a TRIzol method according to the manufacturer's instructions (Life Technologies). Relative mRNA abundance was measured by quantitative RT-PCR using TaqMan gene expression assays and reagents according to standard protocols (Applied Biosystems). Mouse probes for YAP target genes were CTGF (Mm01192933_g1) and Cyr61 (Mm00487498_m1). […] Relative changes in mRNA were calculated by the ΔΔCt method. Changes in gene expression with compound treatment are expressed as fold-change relative to the vehicle group.

[3] = biological target: LATS1 (Homo sapiens (Human), UniProt O95835); experiment: Target Identification Assay: inhibition of LATS1 activity (FIG. 33C); format: biochemical; details: read-out: IC50 against LATS1
Source text: The result further confirmed that the compounds of the invention are potent inhibitors of the LATS kinases.

[4] = test system: human corneal endothelial cells (CECs); experiment: CEC population expansion, markers Collagen 8a2, AQP1, SLC4A11, RPE65, CD31 and Na/K ATPase (RT-PCR, immunohistochemistry); format: cell-based; details: 10 micromolar, 10 days
Procedure: In order to verify that the expanded cell population expresses genes normally expressed by corneal endothelial cells in vivo, cells were cultured and RT-PCR analysis was then performed to measure the expression levels of Collagen 8a2, AQP1, SLC4A11, RPE65 and CD31. Immunohistochemical analysis was also performed to analyse the levels of Na/K ATPase and Collagen 8a2 as follows.
Cells were cultured at 37° C. in 5% CO2 for 10 days.
To perform the RT-PCR analysis, total RNA was extracted using Trizol (Invitrogen), RNeasy Mini and QIA Shredder (Qiagen) according to manufacturer's protocol. RNA quality and quantity were measured using Nanodrop 100 (Thermo-Fisher Scientific) and Bioanalyzer 2100 (Agilent Technologies). cDNA was prepared by reverse transcription and relative mRNA expression was assessed by quantitative RT-PCR using an 7900HT system (Applied Biosystems). The following cycling parameters were used:
1) 50° C. for 2 minutes; 2) 95° C. for 10 minutes; 3) 95° C. for 15 seconds 4) 60° C. for 1 minute. Steps 3-4 were repeated 40 times.
Actin mRNA levels were measured and used as a endogenous controls to normalize gene expression levels and calculate delta Ct values according to the formula dCt=Ct for gene of interest−Ct for endogenous control. Primers were obtained from Applied Biosystems. […]

Chain of LATS1 (O95835 whole entry): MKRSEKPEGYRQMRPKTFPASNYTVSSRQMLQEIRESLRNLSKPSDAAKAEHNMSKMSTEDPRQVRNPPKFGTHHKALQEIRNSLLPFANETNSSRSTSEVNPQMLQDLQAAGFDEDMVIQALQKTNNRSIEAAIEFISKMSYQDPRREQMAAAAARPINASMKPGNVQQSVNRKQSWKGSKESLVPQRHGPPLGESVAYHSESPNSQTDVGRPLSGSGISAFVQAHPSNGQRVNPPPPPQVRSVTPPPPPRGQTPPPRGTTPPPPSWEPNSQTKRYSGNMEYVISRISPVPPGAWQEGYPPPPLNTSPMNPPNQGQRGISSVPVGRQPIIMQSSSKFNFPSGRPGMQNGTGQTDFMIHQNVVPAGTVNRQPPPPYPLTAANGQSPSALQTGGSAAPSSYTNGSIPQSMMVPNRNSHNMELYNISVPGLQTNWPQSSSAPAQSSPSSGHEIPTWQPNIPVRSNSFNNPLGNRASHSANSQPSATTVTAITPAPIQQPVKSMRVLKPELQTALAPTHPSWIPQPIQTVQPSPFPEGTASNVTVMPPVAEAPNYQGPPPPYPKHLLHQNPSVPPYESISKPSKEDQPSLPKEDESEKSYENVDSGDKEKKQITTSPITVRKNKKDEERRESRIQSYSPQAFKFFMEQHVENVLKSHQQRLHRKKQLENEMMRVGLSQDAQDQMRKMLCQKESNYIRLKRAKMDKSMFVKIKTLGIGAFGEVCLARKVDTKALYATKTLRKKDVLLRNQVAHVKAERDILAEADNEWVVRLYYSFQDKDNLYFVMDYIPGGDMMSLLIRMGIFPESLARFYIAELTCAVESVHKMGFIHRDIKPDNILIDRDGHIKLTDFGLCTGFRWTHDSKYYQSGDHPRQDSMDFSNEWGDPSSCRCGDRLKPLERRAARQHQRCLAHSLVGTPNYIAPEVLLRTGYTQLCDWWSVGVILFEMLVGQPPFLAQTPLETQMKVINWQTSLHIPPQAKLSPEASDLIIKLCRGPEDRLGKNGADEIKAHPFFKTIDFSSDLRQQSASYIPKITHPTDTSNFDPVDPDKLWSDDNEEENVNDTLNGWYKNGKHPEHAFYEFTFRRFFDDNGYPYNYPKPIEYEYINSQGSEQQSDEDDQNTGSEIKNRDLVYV

## CC(C)(C)Nc1cc(-c2ccncc2)nc2cnccc12 [Example 261, N-(tert-butyl)-2-(pyridin-4-yl)-1,7-naphthyridin-4-amine]
[1]
  pYAP (% of control): 60 % of control
[2]
  Cyr61 mRNA (fold-change): 3.9 (+/−0.6) fold-change

## Cc1n[nH]cc1-c1nc(NC2(C)CC2)c2ccncc2n1 [Example 133, 2-(3-methyl-1H-pyrazol-4-yl)-N-(1-methylcyclopropyl)pyrido[3,4-d]pyrimidin-4-amine]
[3]
  IC50: 1.3 nM

## CC(C)(O)CC(C)(C)Nc1nc(-c2ccncc2)nc2cnccc12 [Example 49, 2,4-dimethyl-4-{[2-(pyridin-4-yl)pyrido[3,4-d]pyrimidin-4-yl]amino}pentan-2-ol]
[4]
  Expression of corneal endothelial cell genes by the expanded CEC population: express genes normally expressed by corneal endothelial cells in vivo, including Collagen 8a2, AQP1, SLC4A11; also recorded: express genes normally expressed by corneal endothelial cells in vivo, including Na/K ATPase
